Measurements: US11078228B2, “Ectonucleotidase inhibitors and methods of use thereof” (Calithera Biosciences, Inc., priority 2018, dated 2021)

Target: recombinant CD73 (Homo sapiens (Human), UniProt P21589)
Experiment: Assay 1: Inhibition of the CD73 enzyme in vitro (0.5 nM CD73, 30 min room temperature, Malachite Green)
Assay type: biochemical
Conditions: 0.5 nM CD73, 30 minutes at room temperature
Description: For measurements of soluble CD73 enzyme activity, recombinant CD73 was obtained from R&D Systems, Cat. No. 5795-EN-010. […] Reactions were allowed to proceed for 30 minutes at room temperature before the addition of 100 μL Malachite Green (Cell Signaling Technology, Cat. No. 12776). After 5 minutes at room temperature, absorbance at 630 nm was determined on a microplate spectrophotometer. The concentration of inorganic phosphate was determined using a phosphate standard curve.

Sequence of recombinant CD73 (P21589 27-547): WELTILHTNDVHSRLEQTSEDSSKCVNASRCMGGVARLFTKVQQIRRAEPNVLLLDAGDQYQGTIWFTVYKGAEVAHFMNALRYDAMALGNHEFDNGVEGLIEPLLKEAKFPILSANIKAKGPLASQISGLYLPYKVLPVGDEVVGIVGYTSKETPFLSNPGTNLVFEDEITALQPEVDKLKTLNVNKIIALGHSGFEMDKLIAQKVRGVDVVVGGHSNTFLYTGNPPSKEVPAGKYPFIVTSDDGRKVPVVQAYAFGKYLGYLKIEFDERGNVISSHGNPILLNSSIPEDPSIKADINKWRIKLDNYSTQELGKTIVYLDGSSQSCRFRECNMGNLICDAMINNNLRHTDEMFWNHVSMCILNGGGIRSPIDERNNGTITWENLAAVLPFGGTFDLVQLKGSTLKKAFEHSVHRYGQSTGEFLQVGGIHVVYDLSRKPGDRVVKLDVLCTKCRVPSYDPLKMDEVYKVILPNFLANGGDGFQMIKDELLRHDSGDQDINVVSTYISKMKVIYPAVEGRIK

SMILES | IC50 [nM]
C#C[C@@]1(O)[C@@H](CO[C@@](C#N)(Cc2ccccc2)C(=O)O)O[C@@H](n2cnc3c(N)nc(Cl)nc32)[C@@H]1O (single isomer, unassigned) [Example 190] | 9320
C#CCC(OC[C@H]1O[C@@H](n2cnc3c(N)nc(Cl)nc32)[C@H](O)[C@@]1(O)C#C)(C(=O)O)c1cscn1 (stereo partly drawn) [Example 184, 2-(((2R,3S,4R,5R)-5-(6-amino-2-chloro-9H-purin-9-yl)-3-ethynyl-3,4-dihydroxytetrahydrofuran-2-yl)methoxy)-2-(thiazol-4-yl)pent-4-ynoic acid] | 102
C#C[C@@]1(O)[C@@H](CO[C@@](Cc2ccccc2)(C(=O)O)c2cscn2)O[C@@H](n2cnc3c(N)nc(Cl)nc32)[C@@H]1O (single isomer, unassigned) [Example 181] | 21
C#C[C@@]1(O)[C@@H](CO[C@H](C(=O)O)c2csc(-c3ccccc3)n2)O[C@@H](n2cnc3c(N)nc(Cl)nc32)[C@@H]1O (single isomer, unassigned) [Example 193] | 263
C#C[C@@]1(O)[C@@H](COC(C(=O)NO)c2cscn2)O[C@@H](n2cnc3c(N)nc(Cl)nc32)[C@@H]1O (single isomer, unassigned) [Example 186] | 8830
C[C@@]1(O)[C@@H](CO[C@@](Cc2ccc(-c3ccccc3)cc2)(C(=O)O)c2cscn2)O[C@@H](n2cnc3c(N)nc(Cl)nc32)[C@@H]1O (single isomer, unassigned) [Example 199] | 5760
C#C[C@@]1(O)[C@@H](COC(Cc2cccc(C(F)(F)F)c2)(C(=O)O)C(=O)OCC)O[C@@H](n2cnc3c(N)nc(Cl)nc32)[C@@H]1O (stereo partly drawn) [Example 49, 2-(((2R,3S,4R,5R)-5-(6-amino-2-chloro-9H-purin-9-yl)-3-ethynyl-3,4-dihydroxytetrahydrofuran-2-yl)methoxy)-3-ethoxy-3-oxo-2-(3-(trifluoromethyl)-benzyl)propanoic acid] | 273
C#C[C@@]1(O)[C@@H](COC(C(=O)O)S(C)(=O)=O)O[C@@H](n2cnc3c(NC4CCCC4)nc(Cl)nc32)[C@@H]1O (stereo partly drawn) [Example 120, 2-(((2R,3S,4R,5R)-5-(2-chloro-6-(cyclopentylamino)-9H-purin-9-yl)-3-ethynyl-3,4-dihydroxytetrahydrofuran-2-yl)methoxy)-2-(methylsulfonyl)acetic acid] | 4630
C#C[C@@]1(O)[C@@H](CO[C@](C#N)(Cc2ccccc2)C(=O)O)O[C@@H](n2cnc3c(N)nc(Cl)nc32)[C@@H]1O (single isomer, unassigned) [Example 189] | 1850
C#C[C@@]1(O)[C@@H](COC(C(=O)NO)c2cscn2)O[C@@H](n2cnc3c(N)nc(Cl)nc32)[C@@H]1O (single isomer, unassigned) [Example 185] | 11700
C#C[C@@]1(O)[C@@H](COC(C(=O)O)C(=O)O)O[C@@H](n2cnc3c(N)nc(Cl)nc32)[C@@H]1O [Example 26, 2-(((2R,3S,4R,5R)-5-(6-amino-2-chloro-9H-purin-9-yl)-3-ethynyl-3,4-dihydroxytetrahydrofuran-2-yl)methoxy)malonic acid] | 58
C[C@@]1(O)[C@@H](COC(Cc2ccc(-c3ccccc3C(=O)O)cc2)(C(=O)O)c2cscn2)O[C@@H](n2cnc3c(N)nc(Cl)nc32)[C@@H]1O (stereo partly drawn) [Example 200, 4′-(2-(((2R,3S,4R,5R)-5-(6-amino-2-chloro-9H-purin-9-yl)-3,4-dihydroxy-3-methyltetrahydrofuran-2-yl)methoxy)-2-carboxy-2-(thiazol-4-yl)ethyl)-[1,1′-biphenyl]-2-carboxylic acid] | 6090
C#C[C@@]1(O)[C@@H](COP(=O)(O)CP(=O)(O)O)O[C@@H](n2cnc3c(N)nc(Cl)nc32)[C@@H]1O [Example 202, (((((2R,3S,4R,5R)-5-(6-amino-2-chloro-9H-purin-9-yl)-3-ethynyl-3,4-dihydroxytetrahydrofuran-2-yl)methoxy)(hydroxy)phosphoryl)methyl)phosphonic acid] | 148
C#C[C@@]1(O)[C@@H](CO[C@@H](C(=O)O)c2csc(-c3ccccc3)n2)O[C@@H](n2cnc3c(N)nc(Cl)nc32)[C@@H]1O (single isomer, unassigned) [Example 194] | 336
C#C[C@@]1(O)[C@@H](COC(C(=O)O)c2csc(C(=O)O)n2)O[C@@H](n2cnc3c(N)nc(Cl)nc32)[C@@H]1O (stereo partly drawn) [Example 195, 4-((((2R,3S,4R,5R)-5-(6-amino-2-chloro-9H-purin-9-yl)-3-ethynyl-3,4-dihydroxytetrahydrofuran-2-yl)methoxy)(carboxy)methyl)thiazole-2-carboxylic acid] | 236
C#C[C@@]1(O)[C@@H](COC(C(=O)OCC)P(=O)(O)O)O[C@@H](n2cnc3c(N4CCOCC4)nc(Cl)nc32)[C@@H]1O (stereo partly drawn) [Example 124, (1-(((2R,3S,4R,5R)-5-(2-chloro-6-morpholino-9H-purin-9-yl)-3-ethynyl-3,4-dihydroxytetrahydrofuran-2-yl)methoxy)-2-ethoxy-2-oxoethyl)phosphonic acid] | 27

The next molecules have a lower IC50 than those just listed; values first:

IC50 [nM] | SMILES
1.8 | C#C[C@@]1(O)[C@@H](COC(Cc2ccsc2)(C(=O)O)C(=O)O)O[C@@H](n2cnc3c(N)nc(Cl)nc32)[C@@H]1O [Example 24, 2-(((2R,3S,4R,5R)-5-(6-amino-2-chloro-9H-purin-9-yl)-3-ethynyl-3,4-dihydroxytetrahydrofuran-2-yl)methoxy)-2-(thiophen-3-ylmethyl)malonic acid]
7 | C#C[C@@]1(O)[C@@H](CO[C@](Cc2ccccc2)(C(=O)O)c2nnn[nH]2)O[C@@H](n2cnc3c(N)nc(Cl)nc32)[C@@H]1O [Example 191, (S)-2-(((2R,3S,4R,5R)-5-(6-amino-2-chloro-9H-purin-9-yl)-3-ethynyl-3,4-dihydroxytetrahydrofuran-2-yl)methoxy)-3-phenyl-2-(1H-tetrazol-5-yl)propanoic acid]
1.5 | C#C[C@@]1(O)[C@@H](COC(Cc2ccccc2)(C(=O)O)C(=O)O)O[C@@H](n2cnc3c(NCCN(CC)CC)nc(Cl)nc32)[C@@H]1O [Example 61, 2-benzyl-2-(((2R,3S,4R,5R)-5-(2-chloro-6-((2-(diethylamino)ethyl)-amino)-9H-purin-9-yl)-3-ethynyl-3,4-dihydroxytetrahydrofuran-2-yl)methoxy)-malonic acid]
1 | C#C[C@@]1(O)[C@@H](COC(Cc2ccccc2)(C(=O)O)C(=O)O)O[C@@H](n2cnc3c(NCc4ccccc4)nc(Cl)nc32)[C@@H]1O [Example 59, 2-benzyl-2-(((2R,3S,4R,5R)-5-(6-(benzylamino)-2-chloro-9H-purin-9-yl)-3-ethynyl-3,4-dihydroxytetrahydrofuran-2-yl)methoxy)malonic acid]
5 | C#C[C@@]1(O)[C@@H](COC(Cc2cccc(OC(F)(F)F)c2)(C(=O)O)C(=O)O)O[C@@H](n2cnc3c(N)nc(Cl)nc32)[C@@H]1O [Example 23, 2-(((2R,3S,4R,5R)-5-(6-amino-2-chloro-9H-purin-9-yl)-3-ethynyl-3,4-dihydroxytetrahydrofuran-2-yl)methoxy)-2-(3-(trifluoromethoxy)benzyl)malonic acid]
3 | Nc1nc(Cl)nc2c1ncn2[C@@H]1O[C@H](COC(C(=O)O)C(=O)O)[C@](O)(C#Cc2ccn(Cc3ccccc3)n2)[C@H]1O [Example 28, 2-(((2R,3S,4R,5R)-5-(6-amino-2-chloro-9H-purin-9-yl)-3-((1-benzyl-1H-pyrazol-3-yl)ethynyl)-3,4-dihydroxytetrahydrofuran-2-yl)methoxy)malonic acid]
12 | C[C@@]1(O)[C@@H](COP(=O)(O)CP(=O)(O)O)O[C@@H](n2cnc3c(NCc4ccccc4)nc(Cl)nc32)[C@@H]1O [Example 205, (((((2R,3S,4R,5R)-5-(6-(benzylamino)-2-chloro-9H-purin-9-yl)-3,4-dihydroxy-3-methyltetrahydrofuran-2-yl)methoxy)(hydroxy)phosphoryl)methyl)phosphonic acid]
18 | Nc1nc(Cl)nc2c1ncn2[C@@H]1O[C@H](COC(C(=O)O)C(=O)O)[C@](O)(C#Cc2cc[nH]n2)[C@H]1O [Example 27, 2-(((2R,3S,4R,5R)-3-((1H-pyrazol-3-yl)ethynyl)-5-(6-amino-2-chloro-9H-purin-9-yl)-3,4-dihydroxytetrahydrofuran-2-yl)methoxy)malonic acid]
10 | C#C[C@@]1(O)[C@@H](CO[C@](Cc2ccccc2)(C(=O)O)c2cscn2)O[C@@H](n2cnc3c(NC)nc(Cl)nc32)[C@@H]1O [Example 187, (S)-2-(((2R,3S,4R,5R)-5-(2-chloro-6-(methylamino)-9H-purin-9-yl)-3-ethynyl-3,4-dihydroxytetrahydrofuran-2-yl)methoxy)-3-phenyl-2-(thiazol-4-yl)propanoic acid]
3 | C#C[C@@]1(O)[C@@H](COC(Cc2ccccc2)(C(=O)O)C(=O)O)O[C@@H](n2cnc3c(NC4CCOCC4)nc(Cl)nc32)[C@@H]1O [Example 60, 2-benzyl-2-(((2R,3S,4R,5R)-5-(2-chloro-6-((tetrahydro-2H-pyran-4-yl)amino)-9H-purin-9-yl)-3-ethynyl-3,4-dihydroxytetrahydrofuran-2-yl)methoxy)malonic acid]
0.9 | C#C[C@@]1(O)[C@@H](COC(Cc2ccccc2)(C(=O)O)C(=O)O)O[C@@H](n2cnc3c(N4CCCC4)nc(Cl)nc32)[C@@H]1O [Example 90, 2-benzyl-2-(((2R,3S,4R,5R)-5-(2-chloro-6-(pyrrolidin-1-yl)-9H-purin-9-yl)-3-ethynyl-3,4-dihydroxytetrahydrofuran-2-yl)methoxy)malonic acid]
4 | C#C[C@@]1(O)[C@@H](COC(Cc2cccc(OC)c2)(C(=O)O)C(=O)O)O[C@@H](n2cnc3c(N)nc(Cl)nc32)[C@@H]1O [Example 52, 2-(((2R,3S,4R,5R)-5-(6-amino-2-chloro-9H-purin-9-yl)-3-ethynyl-3,4-dihydroxytetrahydrofuran-2-yl)methoxy)-2-(3-methoxybenzyl)malonic acid]
